From patent US20060079453A1, “Hla binding peptides and their uses” (priority 2002, published 2006)
No end group written: not given here.

Columns and labels:
Test in all cases: biochemical
Assay type in all cases: binding
HLA-DR DRB3*0101 (DR52) = HLA-DR DRB3*0101 (DR52) (Homo sapiens, UniProt P01903+P79483)
HLA-DR DRB1*0901 (DR9) = HLA-DR DRB1*0901 (DR9) (Homo sapiens, UniProt P01903+P01911, A100R/A103E/D57H/D86V/F55Y/F60I/F76Y/I96F/K127E/L162R/M171V/P40D/Q125H/Q99R/R33Q/R42F/S133A/S66N/T210M/V115G/W38K/Y107V/Y59G/Y89S); details: DRB1 *0901
HLA-DR DRB1*0701 (DR7) = HLA-DR DRB1*0701 (DR7) (Homo sapiens, UniProt P01903+P01911, A100R/A102G/A103Q/D57E/D86V/E43K/F76Y/K127E/L162R/M171V/P40G/Q125H/Q99D/R33Q/R42Y/R54Q/S133A/S66F/T210M/V115G/Y107V/Y59L/Y89S); details: DRB1 *0701
HLA-DR DRB1*1101 (DR11) = HLA-DR DRB1*1101 (DR11) (Homo sapiens, UniProt P01903+P01911, A100R/A169T/A87E/I96F/K41T/L162R/M171V/P40S/Q125H/Q178H/Q39Y/Q99D/R42S/S66Y/T262R/V115G/W38E); details: DRB1 *1101
Sequence of HLA-DR DRB1*1101 (DR11) (P01903 26-254 limits assumed, other chains not shown): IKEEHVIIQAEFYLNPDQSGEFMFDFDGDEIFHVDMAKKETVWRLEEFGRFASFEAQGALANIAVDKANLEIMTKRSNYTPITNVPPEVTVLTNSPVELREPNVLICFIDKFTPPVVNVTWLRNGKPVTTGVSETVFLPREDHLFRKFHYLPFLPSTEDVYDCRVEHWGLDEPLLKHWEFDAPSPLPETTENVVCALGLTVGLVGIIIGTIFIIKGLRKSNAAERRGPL

HLA-DR DRB1*1302 (DR13) = HLA-DR DRB1*1302 (DR13) (Homo sapiens, UniProt P01903+P01911, A100E/A169T/K41T/L162R/M171V/P40S/Q125H/Q178H/Q39Y/Q99D/R42S/S66N/T262R/V115G/W38E/Y61H); details: DRBI *1302
Sequence of HLA-DR DRB1*1302 (DR13) (P01903 26-254 limits assumed, other chains not shown): as above

HLA-DR DRB1*0101 (DR1) = HLA-DR DRB1*0101 (DR1) (Homo sapiens, UniProt P01903+P01911, A100R/D57E/F55L/F60I/F76Y/I96L/L162R/M171V/P40L/Q125E/R42F/V115G/Y59C); details: DRB1 *0101
HLA-DR DRB1*0802 (DR8) = HLA-DR DRB1*0802 (DR8) (Homo sapiens, UniProt P01903+P01911, A100R/A103L/A169T/F76Y/H45Y/I96F/K41T/L162R/M171V/P40S/Q125H/Q178H/Q39Y/Q99D/R218S/R42G/S66Y/V115G/W38E)
HLA-DR DRB4*0101 (DR53) = HLA-DR DRB4*0101 (DR53) (Homo sapiens, UniProt P01903+P13762, G164S); details: DRB4 *0101
HLA-DR DRB1*0401 (DR4) = HLA-DR DRB1*0401 (DR4) (Homo sapiens, UniProt P01903+P01911, A100K/A169T/F76Y/I96L/K127E/L162R/M171V/N62H/P40V/Q125Y/R42H/S133A/S149N/S66Y/V115G/V209L/W38E); details: DRB1 *0401
HLA-DR DRB5*0101 (DR51) = HLA-DR DRB5*0101 (DR51) (Homo sapiens, UniProt P01903+Q30154); details: DRB5 *0101
HLA-DR DRB1*1501 (DR15) = HLA-DR DRB1*1501 (DR15) (Homo sapiens, UniProt P01903+P01911); details: DRBI *1501

Molecule | IC50 (HLA-DR DRB3*0101 (DR52)) [µM] | IC50 (HLA-DR DRB1*0901 (DR9)) [µM] | IC50 (HLA-DR DRB1*0701 (DR7)) [µM] | IC50 (HLA-DR DRB1*1101 (DR11)) [µM] | IC50 (HLA-DR DRB1*1302 (DR13)) [µM] | IC50 (HLA-DR DRB1*0101 (DR1)) [µM] | IC50 (HLA-DR DRB1*0802 (DR8)) [µM] | IC50 (HLA-DR DRB4*0101 (DR53)) [µM] | IC50 (HLA-DR DRB1*0401 (DR4)) [µM] | IC50 (HLA-DR DRB5*0101 (DR51)) [µM] | IC50 (HLA-DR DRB1*1501 (DR15)) [µM]
NGVLQGITSWGPEPC | > 14.4 | 50.1 | 2.29 | 32.4 | > 17.5 | 1.09 | 52.2 | 5.76 | 8.43 | > 100 | 0.835
GKVFRGNKVKNAQLA | 7.59 | 31.3 | 2.35 | 0.894 | 0.046 | 0.612 | 4.12 | 7.88 | 1.09 |  | 3.37
GRAVCGGVLVHPQWV | > 12.1 | 8.07 | 3.58 | > 50 | 5.46 | 0.386 | > 245 | 0.062 | > 26.7 | ≥ 100 | 12.9
PEEFLRPRSLQCVSL | > 14.4 | 5.84 | 5.16 | 10.7 | 11.7 | 2 | 2.21 | 0.117 | > 26.7 | 57.5 | 3.19
CC(C)C[C@H](NC(=O)[C@H](CCC(=O)O)NC(=O)[C@H](CCCCN)NC(=O)[C@H](C)NC(=O)[C@H](CC(C)C)NC(=O)[C@@H](NC(=O)[C@H](CO)NC(=O)[C@H](CCCNC(=N)N)NC(=O)[C@@H](N)CC(=O)O)C(C)C)C(=O)N[C@@H](CCCCN)C(=O)N[C@@H](Cc1ccccc1)C(=O)N[C@H](C(=O)N[C@H](C(=O)N[C@@H](CC(C)C)C(=O)N[C@H](C(=O)O)C(C)C)[C@@H](C)O)C(C)C | > 14.4 | 4.72 | 2.02 | 21 | 4.41 |  | 15.8 | 0.053 |  | 2.22 | 1.36
CC[C@H](C)[C@H](NC(=O)[C@@H]1CCCN1C(=O)[C@H](CC(=O)O)NC(=O)[C@@H](NC(=O)[C@@H]1CCCN1C(=O)[C@H](Cc1ccccc1)NC(=O)[C@@H](NC(=O)[C@H](CC(=O)O)NC(=O)[C@@H](NC(=O)[C@@H]1CCCN1C(=O)[C@H](CO)NC(=O)[C@@H](N)CCCNC(=N)N)[C@@H](C)CC)[C@@H](C)O)[C@@H](C)O)C(=O)N[C@@H](CCCCN)C(=O)N[C@@H](CCC(=O)O)C(=O)N[C@@H](CO)C(=O)O | > 14.4 | 6.12 | > 62.5 | > 200 | > 35 | > 50 | > 245 | 0.469 |  | 28.6 | 2.37
CC[C@H](C)[C@H](NC(=O)[C@@H](NC(=O)[C@@H]1CCCN1C(=O)CNC(=O)[C@@H](NC(=O)[C@H](CC(C)C)NC(=O)[C@H](CCC(=O)O)NC(=O)[C@H](C)NC(=O)[C@@H](N)Cc1ccccc1)C(C)C)C(C)C)C(=O)N1CCC[C@H]1C(=O)N[C@@H](CCC(N)=O)C(=O)N[C@@H](CC(=O)O)C(=O)N[C@@H](Cc1c[nH]c2ccccc12)C(=O)N[C@@H](CO)C(=O)N[C@H](C(=O)O)[C@@H](C)O | > 15 | 39.5 | 24.1 | > 50 | > 35 | 0.012 | > 245 | 0.983 |  | > 200 | > 45.5
